{"source": "patent US4965262A", "about": "“Method for treating or preventing locally periodontal disease” (Rohto Pharmaceutical Co., Ltd., priority 1987, dated 1990)", "key": {"[1]": {"test": "Concentration of ofloxacin in periodontal fluid in the pockets after local administration", "assay_type": "in vivo, volunteers", "protocol": "The preparations of Example 3 containing ofloxacin to be inserted into the periodontal pockets were locally administered to the pockets of volunteers and the concentration of ofloxacin in the periodontal fluid in the pockets was determined and compared with that in saliva obtained by oral administration thereof. In the test, the preparations of Example 3 having a thickness of 0.3 mm and width of 1 mm was cut into strips having a length of 4 mm (each containing 0.06 mg of ofloxacin). The strip was inserted into a periodontal pocket of each volunteer. The probing depth of the pocket was 5 mm. After a given time, a filter paper having a width of 1 mm was inserted into the pocket to take the periodontal fluid out of the pocket. The amount of ofloxacin in the periodontal fluid was determined from the diameter of an inhibition circle according to an agar plate diffusion method with E. coli K 12. The quantity of the periodontal fluid thus taken out was determined from a calibration curve prepared from the quantity of a previously prepared liquid sample and the wetted area of the filter paper. The concentration of ofloxacin was thus determined. The time profile of the concentration of ofloxacin in saliva in the oral administration was taken from a report of Morihana et al. (Chemotherapy, 32: Sl, 1070, 1984)."}, "dogs": {"system": "dogs", "conditions": "cited from earlier work"}, "monkeys": {"system": "monkeys", "conditions": "cited from earlier work"}, "[2]": {"conditions": "cited from earlier work; for average concentration of ofloxacin in saliva: oral, 200 mg/body, 8 subjects"}}, "note": "Where two headings read alike, the source gives them in different places."}
{"smiles": "CC1COc2c(N3CCN(C)CC3)c(F)cc3c(=O)c(C(=O)O)cn1c23", "note": "(stereo not drawn) [ofloxacin, 9-fluoro-2,3-dihydro-3-methyl-10-(4-methyl-1-piperazinyl)-7-oxo-7H-pyrido[1,2,3-de][1,4]benzoxazine-6-carboxylic acid]", "values": [{"measurement": "time for which concentration in the pocket was maintained above 70 μg/ml", "setting": "[1]; 0.06 mg inserted into the periodontal pocket", "value": "> 5", "unit": "h"}, {"measurement": "concentration at 5 h", "setting": "[1]; human, periodontal fluid, 0.06 mg inserted into the periodontal pocket, for longer than 5 h, read-out: concentration in the pocket maintained", "value": "> 70000", "unit": "ng/mL"}, {"measurement": "concentration at 24 h", "setting": "[1]; human, periodontal fluid, 0.06 mg/pocket, 24 h, 8 pockets of 4 subjects", "value": 16600, "unit": "ng/mL"}, {"measurement": "Acute toxicity (LD50 in oral administration)", "setting": "dogs", "value": "≥ 200", "unit": "mg/kg"}, {"measurement": "Acute toxicity (LD50 in oral administration)", "setting": "monkeys", "value": "500 to 1,000 mg/kg"}, {"measurement": "maximum concentration in saliva", "setting": "[2]; oral administration of 200 mg, in 3 hours", "value": 1.8, "unit": "µg/mL"}, {"measurement": "time of maximum concentration in saliva", "setting": "[2]; oral administration of 200 mg", "value": 3, "unit": "h"}, {"measurement": "average concentration of ofloxacin in saliva", "setting": "[2]; 1 h", "value": 1.18, "unit": "µg/mL"}, {"measurement": "average concentration of ofloxacin in saliva", "setting": "[2]; 2 h", "value": 1.59, "unit": "µg/mL"}, {"measurement": "average concentration of ofloxacin in saliva", "setting": "[2]; 3 h", "value": 1.80, "unit": "µg/mL"}, {"measurement": "average concentration of ofloxacin in saliva", "setting": "[2]; 4 h", "value": 1.65, "unit": "µg/mL"}, {"measurement": "average concentration of ofloxacin in saliva", "setting": "[2]; 5 h", "value": 1.40, "unit": "µg/mL"}]}
